The values that follow are results of earlier work, collected in patent publication US5514648A, “Fungicidally active compounds” (priority 1990, dated 1996).

Data set [1] deals with Escedchia coli. The settings on record: against Escedchia coli; cited from earlier work.
Data set [2] has as its system Staphylococcus aureus. As to conditions: against Staphylococcus aureus; cited from earlier work.
The subject of data set [3] is Penicillium digitalum. As to conditions: spore germination test with Penicillium digitalum; cited from earlier work.
Data set [4] relates to Bacillus subtilis. As to conditions: against Bacillus subtilis; cited from earlier work.

SMILES strings stand for the structures.

Consider `CC1CCCCCC(=O)c2c(O)cc(O)cc2CC(=O)O1` (stereo not shown) [curvularin, Curvularin], for which the anti-bacterial activity result in data set [1], in data set [2] and in data set [4] was “Neither curvularin nor the crude filtrates from Curvularia showed” in each case. Moreover, the anti-fungal activity entry in data set [3] is on record as “Neither curvularin nor the crude filtrates from Curvularia showed”.
